Results reported in patent US20190211066A1 (INSTITUT NATIONAL DE LA SANTE ET DE LA RECHERCHE M EDICALE …, priority 2010, published 2019).
“Also recorded” adds a separate entry of the source.

Assays:
hCMEC/D3 cells [1] = assay: Growth (size) of Nm colonies on cells under flow; assay type: cell-based, human
Procedure: (§1) hCMEC/D3 cells were grown on disposable flow chambers (15 μ-Slide VI, IBIDI) coated with 5 μg/cm^2 of rat-tail collagen type I. For experiments investigating Nm colony growth under shear stress, 10^7 bacteria were introduced into the flow chamber and allowed to adhere for […] without flow. Subsequently, a flow corresponding to a shear stress of 0.2 dyn/cm^2 was applied using a syringe pump (Harvard Apparatus). For adhesion assays under shear stress, 10^7 bacteria were allowed to adhere for 20 min under a shear stress of 0.04 dyn/cm^2, then the chambers were washed 1 min under a shear stress of 1 dyn/cm^2 (Mairey et al., 2008. J Exp Med 203, 1939-1950).
GFP expression in bacteria was induced by adding 1 mM IPTG in EBM2, 0.1% BSA. For experiments aimed at determining the growth of colonies under shear stress, 107 bacteria were then introduced into the flow chamber and allowed to adhere for 20 min without flow. Subsequently, a flow corresponding to a shear stress of 0.2 dyn/cm2 was applied using a syringe pump (Harvard Apparatus). For adhesion assays under shear stress, […] were introduced into the flow chamber and allowed to adhere for 20 min under a shear stress of 0.04 dyn/cm2, subsequently the chamber was washed 1 min under a shear stress of 1 dyn/cm2, Fluorescent bacteria in the chambers were observed using an Olympus CKX41 inverted microscope with a 20× objective, equipped with a shutter for the fluorescence I amp and a Hamamatsu ORCA285 CCD camera. Images were collected and processed using the Openlab software (Improvision). The field under observation corresponded to a surface of 425 μm by 320 μm with a resolution of 0.63 μm per pixel. Images were analyzed using the lmageJ software.

hCMEC/D3 cell monolayers = assay: Nm transmigration assay and cell-cell junction gaps; assay type: cell-based, human
Procedure: hCMEC/D3 cells were grown on 3 μm pore size MilliCell® inserts and infected at a MOI of 10, corresponding to 10^6 bacteria per insert. Four hours after infection, inserts were placed in a well with fresh medium. After additional 30 min, the number of bacteria, which had crossed the cell monolayer was determined by plating the content of the well and counting the number of colony forming units. To estimate the surface and number of macroscopic cell-cell junction openings, MilliCell® inserts were fixed in 4% PFA and immunostained for VE-cadherin and actin, Several baso-lateral cross-sections of each insert were acquired using a Leica SP5 confocal microscope. Surface and number of gaps within the hCMEC/D3 cell monolayer was determined using Leica Application Suite-AF (LAS-AF) software. Data were expressed as the number of gaps per 4×10 ^5 μm^2 of hCMEC/D3 cell monolayer surface. The size of gaps was determined using the apparent size of a Nm diplococcus as surface unit (approximately 1.7 μm^2).
Briefly, hCMEC/D3 cells were grown on 3 μm pore size MilliCell® inserts and infected at a MOI of 10 (10^6 bacteria per insert). […] After 30 min, the number of bacteria, which had crossed the monolayer of endothelial cells, was then measured by plating the content of dilutions of the lower compartment on agar plates and counting the number of colony forming units (CFU). […]

N. meningitidis = assay: Nm growth in culture and bacterial aggregation; details: 100 μM isoproterenol; data not shown
hCMEC/D3 cells [2] = assay: Static adhesion of Nm (absence of flow); details: isoproterenol pre-treatment
Procedure: (§2) The day before the infection, hCMEC/D3 cells were serum-starved in EBM-2 medium containing 0.1% Bovine Serum albumin (BSA). The day of infection, bacteria from an overnight culture were adjusted to OD600=0.05 and incubated for 2 h at 37° C. in pre-warmed starvation medium. Bacteria were added to cells at a multiplicity of infection (MOI) of 100 and allowed to adhere for 30 minutes. Unbound bacteria were washed with fresh medium and infection was allowed to proceed for 2 h. When needed, drugs were added to cell culture 1 h before infection. Bacteria were tested for growth and aggregation. […] The OD600 was then measured after 1, 2, 3, 4 and 8 h. Aggregation was determined after 2 h of incubation in EBM2, 0.1% BSA in the presence or absence of 100 μM isoproterenol at 37° C. in a 5% CO2 atmosphere under constant shaking.

hCMEC/D3 cells [3] = assay: Quantitative analysis of ezrin (and other proteins) recruitment under Nm bacterial colonies; details: for ezrin recruitment / ezrin-containing cortical plaques under Nm colonies after siRNA: infection three days after transfection
From the text: The recruitment efficiency was estimated by determining the proportion of colonies positive for the indicated protein of interest. At least 50 colonies were observed per coverslip. Each experiment was repeated several times in duplicate or triplicate. Data was examined for significance using Student's t-test.
as §2
For each Nm strain, the recruitment efficiency was estimated by determining the proportion of colonies that efficiently recruited the protein of interest in a “honeycomb shape” just under the colonies. […] At least 50 colonies were scrutinized per coverslip. Each experiment was repeated several times (at least 3). Data was examined for significance using Student's t-test.

hCMEC/D3 cells [4] = assay: Nm adhesion under shear stress (under flow); assay type: cell-based, human; details: pre-treatment with 10 μM isoproterenol, shear stress 0.04 dyn/cm^2
Procedure: as §1
GFP expression in bacteria was induced by adding 1 mM IPTG in EBM2, 0.1% BSA. […] For adhesion assays under shear stress, […] were introduced into the flow chamber and allowed to adhere for 20 min under a shear stress of 0.04 dyn/cm2, subsequently the chamber was washed 1 min under a shear stress of 1 dyn/cm2, Fluorescent bacteria in the chambers were observed using an Olympus CKX41 inverted microscope with a 20× objective, equipped with a shutter for the fluorescence I amp and a Hamamatsu ORCA285 CCD camera. […] Images were analyzed using the lmageJ software.

C=C[C@@]1(C)CC(=O)[C@]2(O)[C@@]3(C)[C@@H](O)CCC(C)(C)[C@@H]3[C@H](O)[C@H](OC(C)=O)[C@@]2(C)O1 [forskolin]
number and size of Nm colonies under flow compared to control conditions (hCMEC/D3 cells [1]; pre-incubation 1 h): no significant effect

CC(C)NCC(O)c1ccc(O)c(O)c1 (centres unmarked) [isoproterenol]
number of cell-cell junction gaps induced by Nm (hCMEC/D3 cell monolayers; isoproterenol pre-treatment 10 μM, 1 h, gaps of all size): noticeably reduced
number of meningococci crossing the monolayer (lower chamber of transwells) (hCMEC/D3 cell monolayers; isoproterenol pre-treatment 1 h, 10 μM): markedly reduced
direct inhibition of Nm growth in culture or of bacterial aggregation properties (N. meningitidis): not due to a direct inhibition
bacterial adhesion in static conditions (absence of flow) (hCMEC/D3 cells [2]): No significant difference; also recorded: did not reduce; also recorded: similar
effect on Nm-induced ezrin recruitment (hCMEC/D3 cells [3]; hCMEC/D3 cells pre-treated with agonist for 2 h before Nm inoculation, saturating (10×KD) concentrations): showed an effect
number of ezrin-containing cortical plaques (hCMEC/D3 cells [3]; isoproterenol dose response, hCMEC/D3 cells): dose-dependent reduction
reduction of bacterial adhesion / number of colonies forming under flow (hCMEC/D3 cells [4]): 40%
proportion of small colonies (≤12 μm^2, about 4 bacteria) under flow (hCMEC/D3 cells [1]; preincubation of cells for 1 h with 10 μM before perfusion of bacteria, control 20% after 4 h): ≈ 70%
proportion of large colonies (48 μm^2 or more, ≥16 bacteria) under flow (hCMEC/D3 cells [1]; preincubation of cells for 1 h with 10 μM before perfusion of bacteria, control about 50% after 4 h): ~10%

CC(C)NCC(O)COc1cccc2ccccc12 (centres unmarked) [propranolol]
reversal of the effect of isoproterenol pre-treatment on Nm-promoted ezrin recruitment (hCMEC/D3 cells [3]; 100 nM propranolol added during pre-incubation with 10 μM isoproterenol): blocked the effect of isoproterenol
number of ezrin-containing cortical plaques elicited by Nm, agent alone (hCMEC/D3 cells [3]; preincubation with saturating propranolol alone): no effect

GRK2 siRNA: small interfering RNA targeting human GRK2 (SEQ ID NO: 6) (guide AAGAAGUACGAGAAGCUGGAGUU; chemistry not given here)
ezrin recruitment / ezrin-containing cortical plaques under Nm colonies after siRNA (hCMEC/D3 cells [3]; siRNA-treated hCMEC/D3 cells): inhibited
βarr2 recruitment under Nm colonies after siRNA (hCMEC/D3 cells [3]; siRNA-treated hCMEC/D3 cells, βarr2-GFP readout): inhibited

βarr1 and βarr2 siRNAs: small interfering RNAs targeting human βarrestin-1 (SEQ ID NO: 4) and βarrestin-2 (SEQ ID NO: 5) (guide 1 AAAGCCUUCUGCGCGGAGAAU; guide 2 GGCUUGUCCUUCCGCAAAGAC; listed as RNA, chemistry not given here)
recruitment of VE-cadherin, p120-catenin, F-actin and ezrin into cortical plaques after siRNA (hCMEC/D3 cells [3]; siRNA-treated Nm-infected hCMEC/D3 cells): markedly and simultaneously affected
Src recruitment under Nm colonies after siRNA (hCMEC/D3 cells [3]; siRNA-treated hCMEC/D3 cells): markedly reduced
ezrin recruitment / ezrin-containing cortical plaques under Nm colonies after siRNA (hCMEC/D3 cells [3]; siRNA-treated hCMEC/D3 cells): decrease
